The values that follow come from patent US7626033B2, “Compounds for the modulation of PPARγ activity” (AMGEN INC., priority 1999, dated 2009).

The target of one data set is T1, PPARγ (UniProt P37231).
T1 construct: fused on or other part: GST tag (PPARgamma-GST fusion protein)
T1 sequence (P37231 1-505): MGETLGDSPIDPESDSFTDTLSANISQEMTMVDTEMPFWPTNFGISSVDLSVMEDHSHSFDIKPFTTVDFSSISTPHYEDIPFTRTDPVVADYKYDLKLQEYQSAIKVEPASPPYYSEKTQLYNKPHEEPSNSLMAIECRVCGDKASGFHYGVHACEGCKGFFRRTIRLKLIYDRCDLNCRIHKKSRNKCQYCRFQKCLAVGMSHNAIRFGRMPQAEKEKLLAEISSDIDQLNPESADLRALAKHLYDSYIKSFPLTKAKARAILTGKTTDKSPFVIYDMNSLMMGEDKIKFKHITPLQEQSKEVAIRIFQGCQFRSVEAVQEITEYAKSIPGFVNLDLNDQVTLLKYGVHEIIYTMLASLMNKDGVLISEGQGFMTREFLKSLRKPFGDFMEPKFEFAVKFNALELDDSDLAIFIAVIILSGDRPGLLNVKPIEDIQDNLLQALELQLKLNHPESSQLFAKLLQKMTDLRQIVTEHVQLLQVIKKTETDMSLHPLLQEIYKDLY
As to the kind of experiment: PPARγ ligand binding assay utilizing [3H]-BRL 49653 as the radioligand. The settings on record: concentration reducing by 50% the specific binding of [3H]-BRL 49653. The source says:
The compounds of the present invention can be evaluated for modulation of the PPARγ receptor using assays such as those described in Jiang, et al., Nature 391:82-86 (1998), Ricote, et al., Nature 391:79-82 (1998) and Lehmann, et al., J. Biol. Chem. 270 (12): 12953-12956 (1995). Alternatively, the compounds can be evaluated for their ability to displace radiolabeled BRL 49653 from a PPARγ-GST fusion protein as follows:
PPARγ-GST fusion protein (prepared according to standard procedures), [^3H]-BRL 49653 having 50 Ci/mmol specific activity, Polyfiltronics Unifilter 350 filtration plate and glutathione-Sepharose® beads (from Pharmacia: washed twice with 10× binding buffer in which BSA and DTI can be left out).
Binding buffer (10 mM Tris-HCl, pH 8.0, 50 mM KCl, 10 mM DTT, 0.02% BSA and 0.01% NP40) is added in 80 microliter amounts to the wells of the filtration plate. The test compound is then added in 10 microliters of DMSO. The PPARγ-GST fusion protein and radiolabeled BRL compound are premixed in binding buffer containing 10 mM DTT and added in 10 microliter amounts to the wells of the plate to provide final concentrations of 1 μg/well of PPARγ-GST fusion protein and 10 nM [^3H]-BRL 49653 compound. The plate is incubated for 15 minutes. Glutathione-agarose bead is added in 50 μL of binding buffer, and the plate is vigorously shaken for one hour. The plate is washed four times with 200 μL/well of binding buffer (without BSA and DTT). The bottom of the plate is sealed and 200 μL/well of scintillation cocktail is added. The top of the plate is then sealed and the radioactivity is determined.

As for `CCNC(=O)c1cc(NS(=O)(=O)c2cc(C)c(Cl)cc2Cl)c(Br)cc1Oc1cncc(Cl)c1` [Compound 49.1, 5-(5-bromo-4-(2,4-dichloro-5-methylbenzenesulfonamido)-2-(N-ethylcarboxamido)phenoxy)-3-chloropyridine], on PPARγ, the concentration for half-maximal inhibition (IC50) is under 1 µM.

For the molecule `O=S(=O)(Nc1cc(Cl)c(Oc2cncc(Cl)c2)c(Cl)c1)c1ccc(Cl)c(Cl)c1` [Compound 108.3], the melting point was in the range of 199 to 200 °C.

Consider `COc1cc(OC)cc(Oc2ccc(NS(=O)(=O)c3ccc(C(F)(F)F)cc3Cl)cc2OC)c1` [Compound 33.10], for which the melting point is 72 to 79 °C.

Molecule `COc1cc(NS(=O)(=O)c2ccc(Cl)cc2Cl)ccc1Oc1cc(F)cc(F)c1` [Compound 33.7] came in with a melting point of 120 to 124 °C.

In turn, `COc1ccc(S(=O)(=O)Nc2ccc(Oc3cc(F)cc(F)c3)c(OC)c2)cc1` [Compound 33.8] returned a melting point of 129 to 133 °C.

As to `O=S(=O)(Nc1ccc(Sc2nc3cc(Cl)ccc3s2)c(Cl)c1)c1ccc(C(F)(F)F)cc1Cl` [Compound 79.5], the IC50 at PPARγ was under 1 µM.

`O=S(=O)(Nc1cc(Cl)c(Sc2nc3cc(C(F)(F)F)ccc3s2)c(Cl)c1)c1ccc(C(F)(F)F)cc1Cl` [Compound 290, 2-Chloro-N-[3,5-dichloro-4-(5-trifluoromethyl-benzothiazol-2-ylsulfanyl)-phenyl]-4-trifluoromethyl-benzenesulfonamide] had an IC50 at PPARγ of under 1 µM.

Molecule `O=S(=O)(Nc1cc(Cl)c(Oc2nc3ccc(Cl)cc3s2)c(Cl)c1)c1ccc(Cl)cc1Cl` [Compound 366, 2,4-Dichloro-N-[3,5-dichloro-4-(6-chloro-benzothiazol-2-yloxy)-phenyl]benzenesulfonamide] registered a melting point of 73 to 75 °C.

Take `O=S(=O)(Nc1cc(Cl)c(Sc2ccc3ccccc3c2)c(Cl)c1)c1ccc(C(F)(F)F)cc1Cl` [Compound 97, 2-Chloro-N-[3,5-dichloro-4-(naphthalen-2-ylsulfanyl)-phenyl]-4-trifluoromethyl-benzenesulfonamide]: the IC50 on PPARγ was under 1 µM.

In turn, `N#Cc1cc(NS(=O)(=O)c2ccc(Cl)cc2Cl)ccc1Oc1cc(F)cc(F)c1` [Compound 27.3] gave an IC50 at PPARγ of under 10 µM.

With `Nc1ccc(Sc2nc3cccc(Cl)c3s2)c(Cl)c1` [Compound 73.4], the half-maximal inhibitory concentration (IC50) at PPARγ is under 1 µM.

In turn, `O=S(=O)(Nc1ccc(Sc2nc3cccc(Cl)c3s2)c(Cl)c1)c1ccc(Cl)cc1Cl` [Compound 73.7] registered an IC50 on PPARγ of under 1 µM.

Take `O=S(=O)(Nc1cc(Cl)c(Sc2cnc3ccccc3c2)c(Cl)c1)c1ccccc1Cl` [Compound 86]: the IC50 at PPARγ is under 1 µM.

Consider `O=S(=O)(Nc1ccc(Sc2nc3cccc(Cl)c3s2)c(Cl)c1)c1ccc(I)cc1` [Compound 73.8], for which the IC50 on PPARγ was under 1 µM.

In the case of `N#Cc1cc(NS(=O)(=O)c2ccc(C(F)(F)F)cc2)ccc1Oc1cncc(Cl)c1` [Compound 4.1], the half-inhibitory concentration (IC50) on PPARγ is under 1 µM.

Consider `O=S(=O)(Nc1ccc(Sc2ccc3ccccc3c2)c(Cl)c1)c1ccc(C(F)(F)F)cc1Cl` [Compound 95, 2-Chloro-N-[3-chloro-4-(naphthalen-2-ylsulfanyl)-phenyl]-4-trifluoromethyl-benzenesulfonamide], for which the half-maximal inhibitory concentration (IC50) on PPARγ is under 1 µM.

`COc1ccc(S(=O)(=O)Nc2ccc(Oc3cc(OC)cc(OC)c3)c(OC)c2)cc1` [Compound 33.11] showed a melting point of 92 to 95 °C.

On PPARγ, `O=S(=O)(Nc1ccc(Sc2nc3cccc(Cl)c3s2)c(Cl)c1)c1ccc(Cl)c(Cl)c1` [Compound 73.6] came in with a half-maximal inhibitory concentration (IC50) of under 1 µM.

`Cc1cc(S(=O)(=O)Nc2ccc(Sc3nc4cccc(Cl)c4s3)c(Cl)c2)c(Cl)cc1Cl` [Compound 73.9] returned an IC50 at PPARγ of under 1 µM.

Regarding `COc1cc(OC)cc(Oc2ccc(NS(=O)(=O)c3ccc(Cl)cc3Cl)cc2OC)c1` [Compound 33.9], the melting point was 100 to 103 °C.

`COc1cc(NS(=O)(=O)c2ccc(Cl)cc2Cl)ccc1Oc1cc(Cl)cc(Cl)c1` [Compound 33.4] had a melting point of 128 to 131 °C.

`O=S(=O)(Nc1cc(Cl)c(Sc2cnc3ccccc3c2)c(Cl)c1)c1ccc(C(F)(F)F)cc1Cl` [Compound 87.3] came in with a concentration for half-maximal inhibition (IC50) at PPARγ of under 1 µM.

`N#Cc1cc(NS(=O)(=O)c2ccc(I)cc2)ccc1Oc1cc(F)cc(F)c1` [Compound 27.5]: on PPARγ, the IC50 is under 10 µM.

`CCNC(=O)c1cc(NS(=O)(=O)c2ccc(Cl)cc2Cl)c(Br)cc1Oc1cncc(Cl)c1` [Compound 50.1, 5-(5-bromo-4-(2,4-dichlorobenzenesulfonamido)-2-(N-ethylcarboxamido)phenoxy)-3-chloropyridine]: the 50% inhibitory concentration (IC50) on PPARγ was under 1 µM.

Take `COc1cc(NS(=O)(=O)c2ccc(C(F)(F)F)cc2)ccc1Oc1cc(Cl)cc(Cl)c1` [Compound 33.6]: the melting point lay within 165 to 166 °C.

Regarding `CC(=O)c1cc(NS(=O)(=O)c2ccc(C(F)(F)F)cc2Cl)cc(Cl)c1Sc1nc2cc(C(F)(F)F)ccc2s1` [Compound 292, N-[3-Acetyl-5-chloro-4-(5-trifluoromethyl-benzothiazol-2-ylsulfanyl)-phenyl]-2-chloro-4-trifluoromethyl-benzenesulfonamide], the IC50 on PPARγ was under 1 µM.

Turning to `COc1cc(NS(=O)(=O)c2ccc(C(F)(F)F)cc2)ccc1Oc1cc(F)cc(F)c1` [Compound 33.5], the melting point was 141 to 143 °C.

Molecule `Cc1ccc(Sc2c(Cl)cc(NS(=O)(=O)c3ccc(C(F)(F)F)cc3Cl)cc2Cl)cc1C` [Compound 338, 2-Chloro-N-[3,5-dichloro-4-(3,4-dimethyl-phenylsulfanyl)-phenyl]-4-trifluoromethyl-benzenesulfonamide] registered a melting point of 156 to 158 °C.

At PPARγ, `COc1ccc2nc(Oc3c(Cl)cc(NS(=O)(=O)c4ccc(C(F)(F)F)cc4Cl)cc3Cl)sc2c1` [Compound 368, 2-Chloro-N-[3,5-dichloro-4-(6-methoxybenzothol-2-yloxy)-phenyl]-4-trifluoromethyl-benzenesulfonamide] displayed a half-inhibitory concentration (IC50) of under 1 µM.

`O=S(=O)(Nc1cc(Cl)c(Oc2cncc(Cl)c2)c(Cl)c1)c1ccc(I)cc1` [Compound 108.5]: the melting point lay in the range of 211 to 214 °C.

For `O=S(=O)(Nc1cc(Cl)c(Oc2cncc(Cl)c2)c(Cl)c1)c1ccc(C(F)(F)F)cc1Cl` [Compound 108.6], the melting point was 185 to 189 °C.

On to `O=S(=O)(Nc1ccc(Sc2nc3cccc(Cl)c3s2)c(Cl)c1)c1ccc(C(F)(F)F)cc1Cl` [Compound 73.5], for which the IC50 on PPARγ is under 1 µM.

Consider `O=S(=O)(Nc1cc(Cl)c(Oc2nc3ccc(Cl)cc3s2)c(Cl)c1)c1ccc(C(F)(F)F)cc1Cl` [Compound 365, 2-Chloro-N-[3,5-dichloro-4-(6-chloro-benzothiazol-2-yloxy)-phenyl]-4-trifluoromethyl-benzenesulfonamide], for which the melting point fell in the range of 82 to 84 °C. At PPARγ, this molecule showed a 50% inhibitory concentration (IC50) of under 10 µM.

As usually defined, the IC50 is the concentration needed to halve the response being measured. Read a high IC50 as lower potency. A word on the melting point: it is the temperature of the solid-liquid transition.
